≈ marks a conversion by molar mass, not a printed value.
How the values were obtained:
[1] = target: T1, Beta-lactamase OXA-9 (Klebsiella aerogenes) (UniProt P0A3M4); experiment: Tested for inhibitory activity against beta-lactamase (groupIV) Klebsiella aerogenes 1082E in presence of ampicillin + 80 ug/mL of compound
T1 sequence (whole entry): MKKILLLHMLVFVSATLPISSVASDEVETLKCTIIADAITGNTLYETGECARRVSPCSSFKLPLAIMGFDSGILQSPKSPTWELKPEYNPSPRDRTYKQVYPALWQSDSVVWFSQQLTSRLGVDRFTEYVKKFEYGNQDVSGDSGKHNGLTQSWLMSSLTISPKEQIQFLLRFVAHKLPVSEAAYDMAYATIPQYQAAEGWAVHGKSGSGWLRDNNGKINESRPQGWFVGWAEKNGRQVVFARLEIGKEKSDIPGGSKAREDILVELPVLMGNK

[2] = target: Beta-lactamase OXA-1 (Escherichia coli) (UniProt P13661); experiment: Tested for inhibitory activity against beta-lactamase (groupV) Escherichia coli R57b in presence of ampicillin + 80 ug/mL of compound
Beta-lactamase OXA-1 (Escherichia coli), sequence (P13661 whole entry): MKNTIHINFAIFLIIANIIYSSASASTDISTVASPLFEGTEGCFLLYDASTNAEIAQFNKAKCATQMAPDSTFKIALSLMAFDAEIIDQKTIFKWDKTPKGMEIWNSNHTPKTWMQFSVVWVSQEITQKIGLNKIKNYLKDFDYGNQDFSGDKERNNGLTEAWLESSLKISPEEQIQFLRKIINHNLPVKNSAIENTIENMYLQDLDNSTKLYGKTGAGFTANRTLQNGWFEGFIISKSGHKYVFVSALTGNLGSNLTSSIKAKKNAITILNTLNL

[3] = target: Beta-lactamase TEM (Escherichia coli) (UniProt P62593); experiment: Tested for inhibitory activity against beta-lactamase (groupIII) Escherichia coli RPI in presence of ampicillin + 80 ug/mL of compound
Beta-lactamase TEM (Escherichia coli), sequence (P62593 whole entry): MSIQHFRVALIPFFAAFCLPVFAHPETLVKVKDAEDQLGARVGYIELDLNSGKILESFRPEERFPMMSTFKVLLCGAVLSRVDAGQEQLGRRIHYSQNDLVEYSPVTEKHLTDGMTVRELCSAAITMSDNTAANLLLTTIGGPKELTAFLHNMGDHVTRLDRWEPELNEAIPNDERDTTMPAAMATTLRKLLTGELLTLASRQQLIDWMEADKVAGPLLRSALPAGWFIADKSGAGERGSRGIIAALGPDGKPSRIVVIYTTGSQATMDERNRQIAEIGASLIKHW

[4] = target: T1, Beta-lactamase OXA-9 (Klebsiella aerogenes); experiment: Tested for inhibitory activity against beta-lactamase (groupIV) Klebsiella aerogenes 1082E in presence of ampicillin + 20 ug/mL of compound
[5] = target: Beta-lactamase (Enterobacter cloacae) (UniProt P05364); experiment: Tested for inhibitory activity against beta-lactamase (groupI) Enterobacter cloacae P99 in presence of ampicillin + 80 ug/mL of compound
Beta-lactamase (Enterobacter cloacae), sequence (P05364 21-381 limits assumed): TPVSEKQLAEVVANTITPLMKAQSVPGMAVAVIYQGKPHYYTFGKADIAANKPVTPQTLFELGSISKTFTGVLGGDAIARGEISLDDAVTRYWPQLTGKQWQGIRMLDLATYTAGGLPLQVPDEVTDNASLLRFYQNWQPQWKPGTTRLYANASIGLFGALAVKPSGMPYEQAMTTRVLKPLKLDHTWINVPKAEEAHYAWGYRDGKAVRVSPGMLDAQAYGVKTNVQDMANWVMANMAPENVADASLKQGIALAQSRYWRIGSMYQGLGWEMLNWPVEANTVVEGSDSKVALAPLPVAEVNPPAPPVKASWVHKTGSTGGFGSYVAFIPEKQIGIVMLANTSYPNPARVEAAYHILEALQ

[6] = target: Beta-lactamase (Staphylococcus aureus) (UniProt P00807); experiment: Tested for inhibitory activity against beta-lactamase (groupII) staphylococcus aureus 39/2 strain in presence of ampicillin + 80 ug/mL of compound
Beta-lactamase (Staphylococcus aureus), sequence (P00807 whole entry): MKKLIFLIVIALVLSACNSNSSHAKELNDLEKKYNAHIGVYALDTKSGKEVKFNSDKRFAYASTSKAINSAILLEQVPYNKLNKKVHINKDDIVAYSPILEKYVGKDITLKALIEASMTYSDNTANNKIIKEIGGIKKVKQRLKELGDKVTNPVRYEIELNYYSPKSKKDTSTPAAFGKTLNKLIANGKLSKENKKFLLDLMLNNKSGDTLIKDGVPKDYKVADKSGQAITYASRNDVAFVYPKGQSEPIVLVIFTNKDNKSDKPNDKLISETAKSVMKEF

[7] = target: Beta-lactamase TEM (Escherichia coli) (UniProt P62593); experiment: Tested for inhibitory activity against beta-lactamase (groupIII) Escherichia coli RPI in presence of ampicillin + 20 ug/mL of compound
[8] = target: Beta-lactamase (Staphylococcus aureus) (UniProt P00807); experiment: Tested for inhibitory activity against beta-lactamase (groupII) staphylococcus aureus 39/2 strain in presence of ampicillin + 20 ug/mL of compound
[9] = target: Beta-lactamase OXA-1 (Escherichia coli) (UniProt P13661); experiment: Tested for inhibitory activity against beta-lactamase (groupV) Escherichia coli R57b in presence of ampicillin + 20 ug/mL of compound
[10] = target: Beta-lactamase OXA-1 (Escherichia coli) (UniProt P13661); experiment: Tested for inhibitory activity against beta-lactamase (groupV) Escherichia coli RGN in presence of ampicillin + 80 ug/mL of compound
[11] = target: Beta-lactamase OXA-1 (Escherichia coli) (UniProt P13661); experiment: Tested for inhibitory activity against beta-lactamase (groupV) Escherichia coli RGN in presence of ampicillin + 20 ug/mL of compound
[12] = target: Beta-lactamase TEM (Escherichia coli) (UniProt P62593); experiment: Tested for inhibitory activity against beta-lactamase (groupIII) Escherichia coli RPI
[13] = target: Beta-lactamase (Enterobacter cloacae) (UniProt P05364); experiment: Tested for inhibitory activity against beta-lactamase (groupI) Enterobacter cloacae P99
[14] = target: Beta-lactamase (Staphylococcus aureus) (UniProt P00807); experiment: Tested for inhibitory activity against beta-lactamase (groupII) staphylococcus aureus 39/2 strain
[15] = target: T1, Beta-lactamase OXA-9 (Klebsiella aerogenes); experiment: Tested for inhibitory activity against beta-lactamase (groupIV) Klebsiella aerogenes 1082E
[16] = target: Beta-lactamase OXA-1 (Escherichia coli) (UniProt P13661); experiment: Tested for inhibitory activity against beta-lactamase (groupV) Escherichia coli R57b
[17] = target: Beta-lactamase OXA-1 (Escherichia coli) (UniProt P13661); experiment: Tested for inhibitory activity against beta-lactamase (groupV) Escherichia coli RGN

SMILES | MIC [1] | MIC [2] | MIC [3] | MIC [4] | MIC [5] | MIC [6] | MIC [7] | MIC [8] | MIC [9] | MIC [10] | MIC [11] | MIC [12] | MIC [13] | MIC [14] | MIC [15] | MIC [16] | MIC [17]
C[C@H](O)[C@H]1C(=O)N2[C@@H]1S/C(=C\CO)[C@@H]2C(=O)O | > 100 µg/mL | 1.56 µg/mL | > 100 µg/mL | > 100 µg/mL | > 100 µg/mL | < 0.39 µg/mL | > 100 µg/mL | < 0.39 µg/mL | 6.25 µg/mL | 3.12 µg/mL | 6.25 µg/mL | – | – | – | – | – | –
CC1(C)S[C@@H]2[C@H](NC(=O)[C@H](N)c3ccccc3)C(=O)N2[C@H]1C(=O)O | – | – | – | – | – | – | – | – | – | – | – | > 100 µg/mL | > 100 µg/mL | 1.56 µg/mL (≈ 4.46 µM) | > 100 µg/mL | 100 µg/mL (≈ 286 µM) | 12.5 µg/mL (≈ 35.8 µM)
